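Each compound was tested at five concentrations against cells in 96-well plates for 48 hours. At the GI50, growth is halved.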 Activity calls are given as the source filed them. Cut-off read from the data, not from the text of the source: active = GI50 up to about 1.1 µM and inactive = higher.
What was measured:
Experiment in all cases: inhibition of tumour cell growth, NCI panel, 48 h
[1] = system: 786-0
[2] = system: A498
[3] = system: CAKI-1
[4] = system: COLO 205
[5] = system: HL-60
[6] = system: HT-29
[7] = system: KM12
[8] = system: Malme-3M
[9] = system: OVCAR-3
[10] = system: RXF 393
[11] = system: SF-539
[12] = system: SK-MEL-2
[13] = system: SN12C
[14] = system: SW-620
[15] = system: TK-10
[16] = system: UACC-257
[17] = system: HCT-15
[18] = system: M14
[19] = system: OVCAR-5

Compound	GI50 [1]	GI50 [2]	GI50 [3]	GI50 [4]	GI50 [5]	GI50 [6]	GI50 [7]	GI50 [8]	GI50 [9]	GI50 [10]	GI50 [11]	GI50 [12]	GI50 [13]	GI50 [14]	GI50 [15]	GI50 [16]	GI50 [17]	GI50 [18]	GI50 [19]
C1CN2CCO[SiH](O1)OCC2	> 100 µM (inactive)	> 100 µM (inactive)	> 100 µM (inactive)	> 100 µM (inactive)	> 100 µM (inactive)	> 100 µM (inactive)	> 100 µM (inactive)	> 100 µM (inactive)	> 100 µM (inactive)	> 100 µM (inactive)	> 100 µM (inactive)	> 100 µM (inactive)	> 100 µM (inactive)	> 100 µM (inactive)	> 100 µM (inactive)	> 100 µM (inactive)	–	–	–
[O-][S+]1Cc2ccccc2CS1 (stereo not given)	15.7 µM (inactive)	76.6 µM (inactive)	13.9 µM (inactive)	15.4 µM (inactive)	15.1 µM (inactive)	15.8 µM (inactive)	35.1 µM (inactive)	13.6 µM (inactive)	15.1 µM (inactive)	15.9 µM (inactive)	11.4 µM (inactive)	–	14 µM (inactive)	13.9 µM (inactive)	21.8 µM (inactive)	14.7 µM (inactive)	34.9 µM	15 µM (inactive)	18.2 µM (inactive)
COc1ccc2[nH]c3c(c2c1)[C@H](C)C[C@@H]1C(=O)N(c2ccccc2)C(=O)[C@H]31	22.8 µM (inactive)	20.6 µM (inactive)	33 µM (inactive)	51.3 µM (inactive)	> 100 µM (inactive)	–	17.8 µM (inactive)	26.6 µM (inactive)	24 µM (inactive)	29.6 µM (inactive)	21.2 µM (inactive)	42.7 µM (inactive)	27.1 µM (inactive)	32.4 µM (inactive)	31.3 µM (inactive)	56.1 µM (inactive)	35.2 µM	35.6 µM (inactive)	91.8 µM (inactive)
CC(C)CS(=O)(=O)/C(=C(\c1ccc(Br)cc1)S(=O)(=O)CC(C)C)c1ccc(Br)cc1	> 100 µM (inactive)	16.3 µM (inactive)	> 100 µM (inactive)	> 100 µM (inactive)	–	> 100 µM (inactive)	> 100 µM (inactive)	> 100 µM (inactive)	> 100 µM (inactive)	90.2 µM (inactive)	> 100 µM (inactive)	> 100 µM (inactive)	> 100 µM (inactive)	> 100 µM (inactive)	> 100 µM (inactive)	> 100 µM (inactive)	> 100 µM	> 100 µM (inactive)	> 100 µM (inactive)
CS(=O)(=O)c1c(N)c2nc(Cl)cn2c2nc3ccccc3nc12	62.4 µM (inactive)	–	> 100 µM (inactive)	> 100 µM (inactive)	–	> 100 µM (inactive)	> 100 µM (inactive)	> 100 µM (inactive)	> 100 µM (inactive)	–	> 100 µM (inactive)	> 100 µM (inactive)	> 100 µM (inactive)	> 100 µM (inactive)	–	> 100 µM (inactive)	> 100 µM	> 100 µM (inactive)	> 100 µM (inactive)
CCOC(=O)/C(I)=C/c1cc(OC)c(OC)c(OC)c1	4.44 µM (inactive)	25.6 µM (inactive)	4.27 µM (inactive)	6.12 µM (inactive)	3.67 µM (inactive)	4.55 µM (inactive)	6.4 µM (inactive)	8.89 µM (inactive)	3.94 µM (inactive)	–	9.08 µM (inactive)	49 µM (inactive)	4.62 µM (inactive)	3.55 µM (inactive)	19.3 µM (inactive)	10.8 µM (inactive)	3.9 µM	3.87 µM (inactive)	6.52 µM (inactive)
CCCCCC(/C=C/[C@@H]1[C@H]2CC(=O)O[C@H]2C[C@H]1N1CCOCC1)OC1CCCO1 (stereo not given in full)	> 100 µM (inactive)	> 100 µM (inactive)	> 100 µM (inactive)	> 100 µM (inactive)	> 100 µM (inactive)	> 100 µM (inactive)	> 100 µM (inactive)	> 100 µM (inactive)	> 100 µM (inactive)	> 100 µM (inactive)	> 100 µM (inactive)	> 100 µM (inactive)	–	> 100 µM (inactive)	> 100 µM (inactive)	> 100 µM (inactive)	> 100 µM	> 100 µM (inactive)	> 100 µM (inactive)
COc1ccc(/C=C2\CCC(CCN(C)C)(C3=CCCC3)C2=O)cc1Br (stereo not given)	3.78 µM (inactive)	8.95 µM (inactive)	8.81 µM (inactive)	1.58 µM (inactive)	2.52 µM (inactive)	2.59 µM (inactive)	3.73 µM (inactive)	13.8 µM (inactive)	5.74 µM (inactive)	2.22 µM (inactive)	12.1 µM (inactive)	10 µM (inactive)	9.95 µM (inactive)	7.66 µM (inactive)	6.93 µM (inactive)	2.43 µM (inactive)	4.54 µM	1.79 µM (inactive)	14 µM (inactive)

From ChEMBL document CHEMBL1201862, “PubChem BioAssay data set” (2004)
